Measured values published in the NIST ThermoML archive (doi:10.1021/acs.jced.8b00554).
Where “and” joins values, the source holds several entries; their conditions need not be identical. Equal values may be shown once.

Assay: xn = mol fraction of the nth substance listed
Conditions: 313.15 K, Liquid, Vibrating tube method

CCCCCCCCC [nonane] + CCCO
Conditions	mass density
100 kPa, x2 = 0.7021	741.23 kg/m3
100 kPa, x2 = 0.8941	766.16 kg/m3
1000 kPa, x2 = 0.7021	742.27 kg/m3
1020 kPa, x2 = 0.8941	767.45 kg/m3
2000 kPa, x2 = 0.8941	768.33 kg/m3
2010 kPa, x2 = 0.7021	743.17 kg/m3
3000 kPa, x2 = 0.7021	744.09 kg/m3
3010 kPa, x2 = 0.8941	769.22 kg/m3
4010 kPa, x2 = 0.7021	745 kg/m3
4010 kPa, x2 = 0.8941	770.09 kg/m3
5010 kPa, x2 = 0.7021	745.89 kg/m3
5010 kPa, x2 = 0.8941	770.95 kg/m3
6000 kPa, x2 = 0.3229	689.86 kg/m3
6000 kPa, x2 = 0.8941	771.82 kg/m3
6010 kPa, x2 = 0.2315	670.36 kg/m3
6010 kPa, x2 = 0.4272	717.03 kg/m3
6020 kPa, x2 = 0.1231	666.76 kg/m3
6020 kPa, x2 = 0.7021	746.77 kg/m3
7000 kPa, x2 = 0.1231	667.99 kg/m3
7000 kPa, x2 = 0.3229	691.15 kg/m3
7000 kPa, x2 = 0.8941	772.68 kg/m3
7010 kPa, x2 = 0.7021	747.64 kg/m3
7020 kPa, x2 = 0.2315	671.62 kg/m3
7020 kPa, x2 = 0.4272	718.27 kg/m3
8000 kPa, x2 = 0.1231	669.23 kg/m3
8000 kPa, x2 = 0.3229	692.44 kg/m3
8010 kPa, x2 = 0.4272	719.48 kg/m3
8010 kPa, x2 = 0.7021	748.52 kg/m3
8010 kPa, x2 = 0.8941	773.53 kg/m3
8020 kPa, x2 = 0.2315	672.88 kg/m3
9000 kPa, x2 = 0.1231	670.48 kg/m3
9000 kPa, x2 = 0.7021	749.39 kg/m3
9000 kPa, x2 = 0.8941	774.38 kg/m3
9010 kPa, x2 = 0.3229	693.71 kg/m3
9010 kPa, x2 = 0.4272	720.71 kg/m3
9020 kPa, x2 = 0.2315	674.14 kg/m3
10010 kPa, x2 = 0.2315	675.41 kg/m3
10010 kPa, x2 = 0.4272	721.93 kg/m3
10010 kPa, x2 = 0.7021	750.23 kg/m3
10020 kPa, x2 = 0.8941	775.22 kg/m3
11000 kPa, x2 = 0.8941	776.04 kg/m3
11010 kPa, x2 = 0.1231	672.98 kg/m3
11010 kPa, x2 = 0.2315	676.62 kg/m3
11010 kPa, x2 = 0.4272	723.15 kg/m3
11020 kPa, x2 = 0.3229	696.2 kg/m3
11020 kPa, x2 = 0.7021	751.07 kg/m3
12000 kPa, x2 = 0.1231	674.18 kg/m3
12000 kPa, x2 = 0.3229	697.42 kg/m3
12010 kPa, x2 = 0.2315	677.87 kg/m3
12010 kPa, x2 = 0.4272	724.32 kg/m3
12010 kPa, x2 = 0.7021	751.91 kg/m3
12020 kPa, x2 = 0.8941	776.87 kg/m3
13000 kPa, x2 = 0.2315	679.08 kg/m3
13000 kPa, x2 = 0.4272	725.44 kg/m3
13010 kPa, x2 = 0.1231	675.41 kg/m3
13010 kPa, x2 = 0.3229	698.65 kg/m3
13010 kPa, x2 = 0.8941	777.67 kg/m3
13020 kPa, x2 = 0.7021	752.73 kg/m3
14000 kPa, x2 = 0.1231	676.57 kg/m3
14010 kPa, x2 = 0.2315	680.27 kg/m3
14010 kPa, x2 = 0.3229	699.83 kg/m3
14010 kPa, x2 = 0.4272	726.63 kg/m3
14010 kPa, x2 = 0.8941	778.47 kg/m3
14020 kPa, x2 = 0.7021	753.54 kg/m3
15010 kPa, x2 = 0.1231	717.43 kg/m3 and 677.73 kg/m3
15010 kPa, x2 = 0.2315	681.42 kg/m3 and 721.96 kg/m3
15010 kPa, x2 = 0.3229	726.26 kg/m3
15010 kPa, x2 = 0.4272	727.76 kg/m3 and 732.14 kg/m3
15020 kPa, x2 = 0.3229	700.99 kg/m3
15020 kPa, x2 = 0.7021	754.35 kg/m3
15020 kPa, x2 = 0.8941	779.28 kg/m3
16000 kPa, x2 = 0.8941	780.06 kg/m3
16010 kPa, x2 = 0.2315	682.56 kg/m3 and 722.75 kg/m3
16010 kPa, x2 = 0.7021	755.14 kg/m3
16020 kPa, x2 = 0.1231	718.2 kg/m3
16020 kPa, x2 = 0.3229	702.15 kg/m3 and 727.04 kg/m3
16020 kPa, x2 = 0.4272	728.86 kg/m3 and 732.94 kg/m3
17000 kPa, x2 = 0.4272	729.95 kg/m3 and 733.7 kg/m3
17010 kPa, x2 = 0.1231	718.99 kg/m3
17010 kPa, x2 = 0.2315	683.64 kg/m3 and 723.54 kg/m3
17010 kPa, x2 = 0.3229	727.83 kg/m3
17010 kPa, x2 = 0.7021	755.92 kg/m3
17010 kPa, x2 = 0.8941	780.82 kg/m3
17020 kPa, x2 = 0.1231	679.98 kg/m3
17020 kPa, x2 = 0.3229	703.28 kg/m3
18000 kPa, x2 = 0.7021	756.69 kg/m3
18010 kPa, x2 = 0.1231	719.75 kg/m3
18010 kPa, x2 = 0.2315	684.75 kg/m3 and 724.3 kg/m3
18010 kPa, x2 = 0.3229	704.37 kg/m3 and 728.61 kg/m3
18010 kPa, x2 = 0.4272	734.49 kg/m3
18010 kPa, x2 = 0.8941	781.6 kg/m3
18020 kPa, x2 = 0.1231	681.03 kg/m3
